Results reported in patent publication US4734416A, “Pharmaceutically useful carbostyril derivatives” (Otsuka Pharmaceutical Co., Ltd., priority 1978, dated 1988).
Where a name gives a salt, the structure may show the parent alone.

What was measured:
[1] = Hexabarbital sleep increasing activity (righting reflex); format: in vivo, mouse (male, ddy-strain); settings: oral, Hexabarbital Na 70 mg/kg i.p.
Description: Male mice of ddy-strain having 20 to 25 g body weight are starved for 24 hours. One test group consists of 10 mice. An aqueous Gummi Arabicum suspension of test compound (0.05 g of test compound and 1 g of Gummi Arabicum/100 ml of physiological NaCl solution) is administered orally at the dosage mentioned in the Table 4. One hour after the administration 0.7% of Hexabarbitol.Na-salt is intraperitonerally administered at the dosage of 70 mg/kg body weight. The time between the introduction of sleep to waking is measured by righting reflex as the index. [Reference: A. M. Hjort, De E. J. Beer and D. W. Fassett; J. Pharmac., Exptl.

[2] = Halothane anesthesia increasing activity (righting reflex); format: in vivo, mouse (male, ddy-strain); settings: oral; for Time (minutes) between introduction of anesthesia and waking: 8 mg/kg, 1 hour before 4% Halothane
Description: Male mice of ddy-strain having about 20 g body weight are used. One test group consists of 10 mice. An aqueous Gummi Arabicum suspension of test compound (80 mg of a compound to be tested and 1 g of Gummi Arabicum/100 ml of physiological NaCl solution) is administered orally to each mouse at the dosage of 8 mg of test compound/kg body. One hour after the administration, each mouse is placed in a gas respiration chamber (13×13×24 cm) and oxygen gas containing 4% of Halothane [2-bromo-2-chloro-1,1,1-trifluoroethane] is blown into the chamber at the velocity of 2 l/min for 3 minutes. A mouse anaesthetized is taken out from the chamber and the time between the introduction of anesthesia to waking is measured by righting reflex as the index. To mice of the control group, 1% Gummi Arabicum aqueous physiological solution is orally administered at the dosage of 0.1 ml/10 g body. [Reference: M. J. Turnbull and J. W. Watkins: Br. J. Pharmac., 58, 27-35 (1976)]
Same procedures as mentioned in (II)-(A) are employed, except that the amount of test compound to be orally administered is changed in 4 steps at the dosage of 0.5 mg/kg, 1 mg/kg, 2 mg/kg and 4 mg/kg respectively to measure the relationship between the dosage and degree of strength of anesthesia increasing activity.

[3] = Analgetic activity (acetic acid writhing); format: in vivo, mouse (male, ddy-strain); settings: Mus musculus, read-out: ED50 (analgetic activity)
Description: Male mice of ddy-strain having 15-23 g of body weight are used. One test group consists of 10 mice. The compound to be tested is administered orally by procedures similar to the method mentioned in (II). Fifty minutes after the administration, 0.1 ml of 0.6% acetic acid aqueous solution/10 g body weight is injected intraperitoneally. In case of the mice administered orally with the reference compound (Haloperidol), the injection is made 110 minutes after the administration. The number of writhings shown after 10 minutes is counted for 10 minutes and the ED50 value of respective compounds is calculated in comparison with the number of writhings shown by control group. [Reference: R. Koster, M. Anderson and E. I. Debeer: Fed. Proc., 18, 412, (1959)]

[4] = Activity for inhibiting fighting behavior of mouse isolated singly for a long period of time; format: in vivo, mouse (male, ddy-strain); settings: positive if fighting no longer than 5 seconds in a minute, range in parentheses, read-out: ED50 (inhibition of fighting behavior)
Description: Individual male mice of ddy-strain having 15 to 20 g of body weight are breeded separately in respective cages for 1 month. One test group consists of 10 pairs of mice. The pairs of mice are selected so that when one mouse is taken into the home cage of another, the two mice fight together continuously for over 30 seconds. ED50 values are calculated by administering the respective test compounds to each test groups of mice. Activity for inhibiting fighting behavior of the test compound is determined as positive in case the administered mice only continue the fighting for no longer than 5 seconds in a minute. When the mice continue the fighting over 5 seconds they are forced to separate for the purpose of reducing the number of injured mice. [Reference: C. Y. Yen, R. L. Stanger and N. Millman: Arch. Int. Pharmacodyn., 123, 179 (1959)]

in vivo = settings: mouse
Description: Mice of ddy-strain having 20-22 g of body weight are used. One test group consists of 10 mice.
Oral administration: Compound to be tested is suspended in 1% Gummi Arabicum physiological NaCl aqueous solution.
Intravenuous administration: Compound to be tested is dissolved in 50% propyleneglycol aqueous solution.

[5] = molecular target: T1, enucleated ileum of a guinea pig (Cavia porcellus, UniProt P31389); test: Antihistamine activity test in vitro (enucleated guinea pig ileum, histamine retraction, pA2 by Van Rossam method); settings: 10^-6 g/ml test compound, 5 minutes before histamine, 36° C.
T1 construct: the tissue of ileum is cut to a length of 2.5 to 3.0 cm and suspended in an organ bath; from tissue; host or cells: isolated ileum from the ileocecal region of male guinea pig
T1 sequence (P31389 whole entry): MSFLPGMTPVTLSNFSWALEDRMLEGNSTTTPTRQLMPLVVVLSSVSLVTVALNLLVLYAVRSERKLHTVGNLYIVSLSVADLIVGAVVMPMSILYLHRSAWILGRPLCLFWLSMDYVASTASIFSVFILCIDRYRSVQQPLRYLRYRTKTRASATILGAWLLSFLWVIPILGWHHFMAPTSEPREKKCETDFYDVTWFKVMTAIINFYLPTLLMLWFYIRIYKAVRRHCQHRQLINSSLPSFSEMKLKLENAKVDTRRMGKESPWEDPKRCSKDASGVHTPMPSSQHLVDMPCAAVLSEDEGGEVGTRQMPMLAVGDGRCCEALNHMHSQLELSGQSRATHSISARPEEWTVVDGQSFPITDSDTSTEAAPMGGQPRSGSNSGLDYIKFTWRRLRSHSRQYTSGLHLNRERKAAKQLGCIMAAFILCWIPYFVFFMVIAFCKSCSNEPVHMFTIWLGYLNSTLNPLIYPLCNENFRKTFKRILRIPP
Description: As to the test method for determining antihistamine activity of a compound in vitro, a method of using an enucleated ileum of a guinea pig is generally accepted.
A male guinea pig having 300 to 500 g body weight is killed by blood letting. An ileum having a length of 15 cm being enculeated from the ileocecal region is dipped into Tyrode's solution (which is prepared from […], 0.2 g of KCl, 0.2 g of CaCl2, 1.0 g of glucose, 1.0 g of NaHCO3, 0.065 g of NaHPO4.2H2 O and 0.2135 g of MgCl2.6H2 O to make 1000 ml in total volume by adding water). Then the tissue of ileum is cut to a length of 2.5 to 3.0 cm and suspended in an organ bath filled with 30 ml of Tyrode's solution. The organ bath is kept at a temperature of 36° C. and a mixed gas consisting of 5% of CO2 and 95% of O2 is blown into the bath. 10 Minutes after the blowing, 10^-6 M of histamine is added to the bath to examine the sensitivity of the tissue and a reaction curve (control) with respect to the dosage of histamine is obtained. After the dosage of histamine-reaction curve (control) becomes constant, 10^-6 g/ml of a compound to be tested is added to the bath and further histamine is added 5 minutes later to obtain a dosage-reaction curve. Retraction of the ileum is recorded on a pen-recorder through an isotonic transducer [TD-112S manufactured by Nihon Koden]. Antihistamine activity of the test compound is determined as pA2 value by the "Van Rossam" method [J. M. Van Rossam; Arch. Inst. Pharmacodyn., 143, 299 (1963)] wherein the maximum retraction of ileum caused by histamine shown in the control curve is 100%.

[6] = antihistamic effect, literature value; cited from earlier work
[7] = 50 min, oral, 50 minutes before acetic acid i.p., range in parentheses

| Compound | Sleep time (min.) [Mean ± SD] ([1]; 0.5 mg/kg) | Sleep time (min.) [Mean ± SD] ([1]; 1.0 mg/kg) | Sleep time (min.) [Mean ± SD] ([1]; 2.0 mg/kg) | Sleep time (min.) [Mean ± SD] ([1]; 4 mg/kg) | Sleep time (min.) [Mean ± SD] ([1]; 8 mg/kg) | Anesthesia increasing activity ([2]; 0.5 mg/kg) | Anesthesia increasing activity ([2]; 1 mg/kg) | Anesthesia increasing activity ([2]; 2 mg/kg) | Anesthesia increasing activity ([2]; 4 mg/kg) | Time (minutes) between introduction of anesthesia and waking [2] | ED50 [3, 7] | ED50 [4] | LD50 (in vivo; iv, female mice) | LD50 (in vivo; iv, male mice) | LD50 (in vivo; po, female mice) | LD50 (in vivo; po, male mice) | Kb [5] | Sleep time (min.) [Mean ± SD] ([1]; 16 mg/kg) | ED50 ([3]; po, 110 min) | pA2 [6] |
| --- | --- | --- | --- | --- | --- | --- | --- | --- | --- | --- | --- | --- | --- | --- | --- | --- | --- | --- | --- | --- |
| O=C1CCc2ccc(OCCCN3CCN(c4ccccc4)CC3)cc2N1 [Compound 6, 7-[3-(4-Phenylpiperazinyl)propoxy]-3,4-dihydrocarbostyril dihydrochloride] | 43.76 ± 6.09 min | 51.24 ± 11.75 min | 54.11 ± 7.80 min | 65.13 ± 11.59 min | 85.83 ± 12.24 min | 8.2 ± 2.6 min | 10.3 ± 3.3 min | 12.1 ± 4.2 min | 16.6 ± 5.1 min | 16.8 ± 6.2 min | 2.31 mg/kg | 0.7 mg/kg | 250 mg/kg | 240 mg/kg | 890 mg/kg | 920 mg/kg | 0.457 nM | – | – | – |
| O=c1ccc2ccc(OCCCN3CCN(c4ccccc4)CC3)cc2[nH]1 [Compound 37, 7-[3-(4-Phenylpiperazinyl)propoxy]carbostyril] | – | – | – | – | – | – | – | – | – | 13.1 ± 6.0 min | 1.52 mg/kg | 0.78 mg/kg | – | – | – | – | 0.295 nM | – | – | – |
| O=C(CCCN1CCC(O)(c2ccc(Cl)cc2)CC1)c1ccc(F)cc1 [Haloperidol, reference compound] | – | – | – | 43.01 ± 19.22 min | 46.83 ± 13.94 min | 5.3 ± 2.9 min | 5.1 ± 2.5 min | 9.3 ± 3.1 min | 10.2 ± 3.7 min | – | – | – | – | – | – | – | – | 66.81 ± 14.32 min | 2.31 mg/kg | – |
| CC(C)(C)NCC(O)COc1cccc2c1CCC(=O)N2 (stereo not drawn) [5-(3-tert-butylamino-2-hydroxy)propoxy-3,4-dihydrocarbostyril hydrochloride] | – | – | – | – | – | – | – | – | – | – | – | – | – | – | – | – | – | – | – | 5.02 |
